Laboratory results as given in ChEMBL document CHEMBL1777780, “Discovery of XEN907, a spirooxindole blocker of NaV1.7 for the treatment of pain” (Bioorg Med Chem Lett, 2011).

How the values were obtained:
[1] = Permeability from apical to basolateral side in human Caco2 cells; format: ADME, cell-based; settings: Caco-2, read-out: permeability
[2] = Permeability from basolateral to apical side in human Caco2 cells; format: ADME, cell-based; settings: Caco-2, read-out: permeability
[3] = Tmax in Lewis rat at 10 mg/kg, po; format: ADME, organism-based; design: dose 10 mg/kg, route oral; settings: in vivo
[4] = Metabolic stability in human hepatocytes assessed as compound remaining after 2 hrs; format: ADME, cell-based, Hepatocyte; settings: read-out: Stability
[5] = AUClast in Lewis rat at 10 mg/kg, po; format: ADME, organism-based; design: time 0 - last, dose 10 mg/kg, route oral; settings: plasma
[6] = Half life in Lewis rat at 3 mg/kg, iv; format: ADME, organism-based; design: dose 3 mg/kg, route intravenous; settings: in vivo
[7] = Oral bioavailability in Lewis rat at 10 mg/kg; format: ADME, organism-based; settings: in vivo
[8] = Clearance in Lewis rat at 3 mg/kg, iv; format: ADME, organism-based; design: dose 3 mg/kg, route intravenous; settings: in vivo
[9] = Metabolic stability in rat hepatocytes assessed as compound remaining after 2 hrs; format: ADME, cell-based, Hepatocyte; settings: read-out: Stability
[10] = Metabolic stability in dog hepatocytes assessed as compound remaining after 2 hrs; format: ADME, cell-based, Canis lupus familiaris, Hepatocyte; settings: read-out: Stability
[11] = Volume of distribution at steady state in Lewis rat at 3 mg/kg, iv; format: ADME, organism-based; design: dose 3 mg/kg, route intravenous; settings: in vivo, read-out: Vdss
[12] = Cmax in Lewis rat at 10 mg/kg, po; format: ADME, organism-based; design: dose 10 mg/kg, route oral; settings: in vivo
[13] = AUClast in Lewis rat at 3 mg/kg, iv; format: ADME, organism-based; design: time 0 - last, dose 3 mg/kg, route intravenous; settings: plasma
[14] = Cmax in Lewis rat at 3 mg/kg, iv; format: ADME, organism-based; design: dose 3 mg/kg, route intravenous; settings: in vivo

| Structure (SMILES) | Papp A→B [1] [×10⁻⁶ cm/s] | Papp B→A [2] [×10⁻⁶ cm/s] | also measured |
| --- | --- | --- | --- |
| O=C1N(Cc2ccc(Cl)cc2)c2ccccc2C1(O)c1ccc2c(c1)OCO2 (configuration not stated) | 9 | 10.9 |  |
| O=C1N(Cc2ccc(Cl)cc2)c2ccccc2C1(O)c1ccc2c(c1)OCCO2 (configuration not stated) | 1.9 | 3.5 |  |
| O=C1N(Cc2ccc(Cl)cc2)c2ccccc2C1(O)c1ccccc1 (configuration not stated) | 13.1 | 12.5 |  |
| O=C1N(CCC2CC2)c2ccccc2C1(O)c1ccc2c(c1)OCO2 (configuration not stated) | 19.9 | 19.8 |  |
| CCCCCN1C(=O)C(O)(c2ccc3c(c2)OCO3)c2ccccc21 (configuration not stated) | 28.9 | 25.4 |  |
| CCC(C)CCN1C(=O)C(O)(c2ccc3c(c2)OCO3)c2ccccc21 (configuration not stated) | 10.5 | 11.5 |  |
| COc1ccc(CN2C(=O)C(O)(c3ccc4c(c3)OCO4)c3ccccc32)cc1 (configuration not stated) | 6.5 | 11.9 |  |
| O=C1N(Cc2ccccc2)c2ccccc2C1(O)c1ccc2c(c1)OCO2 (configuration not stated) | 9.3 | 13.6 |  |
| O=C1N(Cc2ccc3c(c2)OCO3)c2ccccc2C1(O)c1ccc2c(c1)OCO2 (configuration not stated) | 7.7 | 12.1 |  |
| O=C1N(CC2CCC2)c2ccccc2C1(O)c1ccc2c(c1)OCO2 (configuration not stated) | 21.7 | 21.1 |  |
| O=C1N(Cc2ccc(C(F)(F)F)cc2)c2ccccc2C1(O)c1ccc2c(c1)OCO2 (configuration not stated) | 5.4 | 7.9 |  |
| CCCCCN1C(=O)C(C)(c2ccc3c(c2)OCO3)c2ccccc21 (configuration not stated) | 2.4 | 3.6 |  |
| CCCCCN1C(=O)C(N)(c2ccc3c(c2)OCO3)c2ccccc21 (configuration not stated) | 22 | 22.3 |  |
| CCCCCN1C(=O)C2(COc3cc4c(cc32)OCO4)c2ccccc21 (configuration not stated) | 5.9 | 7.2 | Tmax [3]: 0.33 h; remaining at 2 h [4]: 34%; AUC(0-t) [5]: 143 ng·h/mL; half-life [6]: 2.6 h; bioavailability [7]: 13%; clearance [8]: 157 mL/min/kg; remaining at 2 h [9]: 21%; remaining at 2 h [10]: 46%; Vd [11]: 35 L/kg; Cmax [12]: 35 ng/mL; AUC(0-t) [13]: 320 ng·h/mL; Cmax [14]: 953 ng/mL |
| CCCCCN1C(=O)C2(CCc3cc4c(cc32)OCO4)c2ccccc21 (configuration not stated) | 1.1 | 1.6 |  |
